These are literature values, as cited in patent US20080171083A1, “Pharmaceutical Compositions Comprising an Amphiphilic Starch” (VECTURE LIMITED, priority 2004, published 2008).

Structures can show the parent of a compound that is named as a salt.

For this data set the following is noted: class-1 high solubility, class-2 highly permeable, low solubility, class-3 low permeability, class-4 low solubility.
For `CC(C)NCC(O)COc1cccc2ccccc12` (stereo not shown) [propranolol hydrochloride], the “BCS class (solubility / permeability)” value is reported as “class-1”.

Regarding `COc1ccc2c(c1)c(CC(=O)O)c(C)n2C(=O)c1ccc(Cl)cc1` [Indomethacin], the “BCS class (solubility / permeability)” value was “class-2”.

Turning to `COc1ccccc1OCCNCC(O)COc1cccc2[nH]c3ccccc3c12` (stereo not shown) [Carvedilol], the “BCS class (solubility / permeability)” value was “class-4”.

For the compound `NCC1(CC(=O)O)CCCCC1` [Gabapentin], the “BCS class (solubility / permeability)” value is reported as “class-3”.
